Results reported in PubChem BioAssay (NCI).
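Test compounds were applied to cells in 96-well plates for 48 hours at 5 doses. Abbreviation: GI50, concentration required for 50% inhibition of growth. The concentration for full growth arrest is given as TGI.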

Experiments:
Assay in all cases: inhibition of tumour cell growth, NCI panel, 48 h
786-0 renal = test system: 786-0 renal
HT29 colon = test system: HT29 colon
IGROV1 ovarian = test system: IGROV1 ovarian
OVCAR-4 ovarian = test system: OVCAR-4 ovarian
SF-268 CNS = test system: SF-268 CNS
A498 renal = test system: A498 renal
CAKI-1 renal = test system: CAKI-1 renal
BT-549 breast = test system: BT-549 breast
HS 578T breast = test system: HS 578T breast
MCF7 breast = test system: MCF7 breast

Row | SMILES | TGI (786-0 renal) [µM] | TGI (HT29 colon) [µM] | TGI (IGROV1 ovarian) [µM] | TGI (OVCAR-4 ovarian) [µM] | TGI (SF-268 CNS) [µM] | TGI (A498 renal) [µM] | TGI (CAKI-1 renal) [µM] | GI50 (786-0 renal) [µM] | GI50 (A498 renal) [µM] | GI50 (BT-549 breast) [µM] | TGI (BT-549 breast) [µM] | GI50 (CAKI-1 renal) [µM] | GI50 (HS 578T breast) [µM] | TGI (HS 578T breast) [µM] | GI50 (HT29 colon) [µM] | GI50 (IGROV1 ovarian) [µM] | GI50 (OVCAR-4 ovarian) [µM] | GI50 (SF-268 CNS) [µM] | TGI (MCF7 breast) [µM] | GI50 (MCF7 breast) [µM]
1 | CC1OC(n2cc(C(F)(F)F)c(=O)[nH]c2=O)C=CC1=O (stereo not drawn) | 33.1 | 54.6 | 39.9 | 26.8 | > 100 | – | – | – | – | – | – | – | – | – | – | – | – | – | – | –
2 | O=C(NC1CC1)c1c(O)[nH]c(=S)[nH]c1=O | > 100 | > 100 | > 100 | > 100 | > 100 | > 100 | > 100 | – | – | – | – | – | – | – | – | – | – | – | – | –
3 | Oc1ccc2c(=S)cc(-c3ccc(Br)cc3)oc2c1O | 11.1 | 25.9 | 9.96 | > 100 | > 100 | 7.46 | 15.5 | 2.89 | 2.15 | 2.19 | 14.6 | 2.65 | 6.69 | > 100 | 4.56 | 2.56 | 2.03 | 2.18 | – | –
4 | Cc1ccc(S(=O)(=O)OCOS(=O)(=O)c2ccc(C)cc2)cc1 | > 100 | – | > 100 | – | > 100 | – | – | – | – | – | – | – | – | – | – | – | – | – | – | –
5 | O=c1nc2sc3ccccc3c(=O)n2[nH]1 | > 100 | > 100 | > 100 | > 100 | > 100 | – | > 100 | – | – | – | – | – | – | – | – | – | – | – | – | –
6 | CC(=Nc1ccc(N(C)C)cc1)c1ccccc1 | 36.2 | 73.4 | 75.3 | 40.8 | – | > 100 | 34 | – | – | – | 33.2 | – | – | 65.1 | – | – | – | – | 46.9 | –
7 | CC1(C)C(=O)OC(n2cc(F)c(=O)[nH]c2=O)C1=O (stereo not drawn) | > 100 | > 100 | – | > 100 | > 100 | > 100 | – | – | – | – | – | – | – | – | – | – | – | – | – | –
8 | C=C1C(=O)O[C@H]2[C@H]1CC/C(COC(=O)c1cccnc1N)=C\CC[C@@]1(C)O[C@@H]21 | 4.24 | 11 | 11.6 | 19.4 | 16.5 | 7.27 | – | 1.7 | 2.56 | 2.17 | 5.6 | – | 4.15 | 65.1 | 0.721 | 2.56 | 2.08 | 3.54 | 14.6 | 0.553
9 | Cc1cccc(NC(=O)C(=O)C(C2OC(=O)c3ccccc32)[N+](=O)[O-])c1C (stereo not drawn) | 21.8 | 35.1 | 27.7 | 25.8 | 24.7 | 32 | 24.2 | – | – | – | – | – | – | – | – | – | – | – | – | –
10 | Cn1ncc(C#N)c1-c1ccc2c(c1)CN([C@H](CN)Cc1cccc(F)c1)C2=O | 14.6 | > 100 | 1.59 | > 100 | > 100 | 1.39 | – | 0.145 | 0.157 | 0.477 | 12.1 | – | 0.322 | 11.4 | 3.25 | 0.0489 | 23.1 | 20.1 | 25.4 | 0.812
11 | CCC12C=CCN(CCc3c([nH]c4ccccc34)/C=C\1)C2 (stereo not drawn) | > 100 | > 100 | > 100 | > 100 | > 100 | > 100 | > 100 | – | – | – | – | – | – | – | – | – | – | – | – | –
12 | COC(=O)C1C(C(=O)O)C2(c3ccccc3)C(=O)C1(c1ccccc1)C(c1ccccc1)=C2c1ccccc1 (stereo not drawn) | 37.5 | – | 33 | 48.3 | 53.1 | 29.3 | 40.9 | 21.2 | 15.2 | 18 | 37.6 | 20.2 | 23.4 | 58 | – | 17.2 | 15.3 | 20 | 37.6 | 19.6
13 | CC(C)(C)[Si](C)(C)OCC1OC(n2cnc3c(=O)[nH]cnc32)CC1O (stereo not drawn) | > 100 | > 100 | > 100 | > 100 | > 100 | > 100 | > 100 | – | – | – | – | – | – | > 100 | – | – | – | – | > 100 | –
14 | N#Cc1c2ccccc2c(Cc2ccc3c(c2)OCCOCCOCCOCCOCCO3)c2ccccc12 | 25.4 | – | 19.5 | 17.4 | 21.1 | 27.6 | 22.2 | – | – | – | – | – | – | – | – | – | – | – | – | –
15 | COC(=O)C1=CC2C(=O)OC1C1C(=O)NC(=O)C21 (stereo not drawn) | > 100 | > 100 | > 100 | > 100 | > 100 | > 100 | > 100 | – | – | – | – | – | – | – | – | – | – | – | – | –
16 | C=C1C(=O)O[C@H](c2ccoc2)C[C@@H]1[C@@]1(C)CCCC2(C)C(=O)OCC21 (stereo partly drawn) | > 100 | > 100 | > 100 | > 100 | > 100 | > 100 | > 100 | – | – | – | – | – | – | – | – | – | – | – | – | –
17 | CCOC(=O)C1=C(C)NC(=O)NC1c1ccc(OC)cc1OC (stereo not drawn) | > 100 | > 100 | > 100 | – | > 100 | > 100 | > 100 | – | – | – | – | – | – | – | – | – | – | – | – | –
18 | Nc1cccc2c1-c1c(cccc1[N+](=O)[O-])C2=O | > 100 | > 100 | > 100 | > 100 | > 100 | > 100 | > 100 | – | – | – | – | – | – | – | – | – | – | – | – | –
19 | CCOC(=O)c1cc(=O)n(C)c(=O)n1C | > 100 | > 100 | > 100 | > 100 | > 100 | > 100 | > 100 | – | – | – | – | – | – | – | – | – | – | – | – | –
20 | N#C/C(=C\c1c(O)cc(O)cc1O)C(N)=O | > 100 | > 100 | – | > 100 | > 100 | > 100 | > 100 | – | – | – | – | – | – | – | – | – | – | – | – | –
21 | O=C(/C=C/c1ccc(Cl)c(Cl)c1)c1ccccc1Cl | 10.8 | 12.8 | 24.2 | 27.9 | 13.9 | 31.4 | 24.2 | – | – | – | – | – | – | – | – | – | – | – | – | –
22 | COC(=O)c1c[nH]c2cc(OC(C)C)c(OC(C)C)cc2c1=O | > 100 | > 100 | > 100 | – | > 100 | > 100 | > 100 | > 100 | > 100 | > 100 | > 100 | > 100 | > 100 | > 100 | > 100 | > 100 | – | > 100 | > 100 | > 100
23 | Cn1[nH]cc2ccc3nc4ccccc4c(=O)c3c21 | > 100 | > 100 | > 100 | 75.8 | > 100 | 67.7 | 86.5 | – | – | – | – | – | – | – | – | – | – | – | – | –
